Measured values reported in PubChem BioAssay AID720669 (NMMLSC, 2013).
Calls of active or inactive are those of the source.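 Rule for the calls: active = visibly stopped the calcineurin reporter band on a blot from moving down to a smaller size, judged by eye; inactive = reporter band movement visibly unaltered.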

System: calcineurin (human, NFAT-based CaNAR1 reporter dephosphorylation)
Test: inhibitors of CaNAR1 reporter dephosphorylation – TALL-104 cells, western blot, CherryPick01, mechanism study for lytic granule exocytosis inhibitor project (AID 720669)
Settings: CaNAR1 dephosphorylation shift, at 12 µM, stronger effect = higher value

SMILES | inhibition
CC1=NOC(=O)/C1=C/c1ccc(-c2ccc(Cl)cc2)o1 | 0% (inactive)
Cc1ccc(Nc2nc(NCc3ccco3)c3ccccc3n2)cc1 | 0% (inactive)
COC(=O)c1c(NC(=O)c2nc3ccccc3s2)sc2c1CC(C)(C)NC2(C)C | 0% (inactive)
O=CNc1cc(-c2ccsc2)cn2c(-c3ccccc3)cnc12 | 0% (inactive)
O=c1c2ccccc2sn1-c1ccccc1 | 0% (inactive)
CN(C)CCNC(=O)c1ccc(-c2cn3c(-c4ccc(Oc5ccccc5)cc4)cnc3cn2)cc1 | 0% (inactive)
O=C(Cn1sc2ccccc2c1=O)Nc1ccc(F)cc1 | 0% (inactive)
CCN(CC)CCCNc1ccc(-c2nnc(-c3ccc(OCC(C)C)cc3)o2)cn1 | 0% (inactive)
O=c1c2ccc(F)cc2sn1-c1ccccc1 | 0% (inactive)
CCCCC[C@@H](C)N1C[C@@H](COCc2ccccc2)Oc2cc(N3CC[C@@H](N(C)C)C3)ccc2S1(=O)=O | 0% (inactive)
CC1COCC(C)N1C1=C(Cl)C(=O)c2ccccc2C1=O (configuration not stated) | 100%
COc1ccc(-n2sc3ccccc3c2=O)cc1 | 0% (inactive)
CCCCC[C@@H](C)N1C[C@H](COCc2ccccc2)Oc2cc(N3CC[C@@H](N(C)C)C3)ccc2S1(=O)=O | 0% (inactive)
O=C(Cn1sc2ccccc2c1=O)NC12CC3CC(CC(C3)C1)C2 | 0% (inactive)
COc1ccccc1CNc1nc(NCc2ccc(C(C)C)cc2)c2sccc2n1 | 0% (inactive)
CCCCC[C@@H](C)N1C[C@@H](COCc2ccccc2)Oc2cc(N3CC[C@H](N(C)C)C3)ccc2S1(=O)=O | 0% (inactive)
COc1ccc(-c2cc(NC=O)c3ncc(-c4cccc(OC)c4)n3c2)cc1 | 0% (inactive)
Cc1ccc(S(=O)(=O)n2ccc3c(OCCOCCNCc4ccc(F)cc4)cccc32)cc1 | 0% (inactive)
CC(C)(c1ccccc1)c1ccc(OCC(O)CNC2CCN(Cc3ccccc3)CC2)cc1 (configuration not stated) | 0% (inactive)
O=C(CN1C(=O)/C(=C\c2cccc(Br)c2)Oc2ccccc21)NCCCN1CCOCC1 | 0% (inactive)
COc1ccc(N2C(=O)CC(Sc3nnc(-c4ccccc4)o3)C2=O)cc1 (configuration not stated) | 0% (inactive)
COc1ccc(-c2cc(NC=O)c3ncc(-c4ccccc4)n3c2)cc1OC | 0% (inactive)
